This passage reports IC50 results from article PMC9448386, “Discovery of novel conjugates of quinoline and thiazolidinone urea as potential anti-colorectal cancer agent” (Journal of Enzyme Inhibition and Medicinal Chemistry, 2022).

In general, IC50 refers to the concentration that gives 50% inhibition.

One series has as its target MST1R (Homo sapiens, UniProt Q04912). The series is described as follows: Mobility shift assay, MST1R kinase inhibition. Format: biochemical. As to conditions: mean of two independent experiments. On the procedure:
(§1) Kinase inhibitory activity against HGFR, MST1R, ABL, PDGFRβ, AXL, FLT3, RET, c-Src, and VEGFR-2 was evaluated by the mobility shift assay. Detailed operation could be found in our previous research.

The next series deals with HCT-116 cells. The series is described as follows: MTT assay, cytotoxic activity against HCT-116. Particulars: Homo sapiens, average of three separate determinations, SD shown. Format: cell-based. From the text:
(§2) Taking lead compound BC2021-104511-15i, Fruquintinib and Regorafenib as positive controls, the cytotoxic activity against HT-29, HCT-116, COLO-205 and FHC cell lines by MTT assay. Detailed operation could be found in our previous study.
For orientation: Formazan colour is commonly taken as a measure of viable cells.

The test system of the next series is COLO 205 cells. The series is described as follows: MTT assay, cytotoxic activity against COLO 205. The class given is cell-based. Particulars: MTT, average of three separate determinations, SD shown.
From the text: as §2

Another series relates to HT-29 cells. The series is described as follows: MTT assay, cytotoxic activity against HT-29. The class given is cell-based, human. As to conditions: SD shown.
From the text: as §2

The next series addresses HGFR (Homo sapiens, UniProt P08581). The series is described as follows: Mobility shift assay, HGFR kinase inhibition. The class given is biochemical. Particulars: mean of two independent experiments. On the procedure:
as §1

For a further series, the system named is Ron (MST1R). Particulars: Figure 1; cited from earlier work.
Series [1] can be described thus: MTT assay, cytotoxicity against FHC cells. The class given is cell-based. Particulars: FHC cells (normal colorectal mucosa epithelial cells); human normal colorectal mucosa epithelial cells; average of three separate determinations. On the procedure: In order to investigate the cell selectivity index, the cytotoxicity of potent compounds against human normal colorectal mucosa epithelial cell FHC cells was determined.
as §2

[2] abbreviates: Homo sapiens, HT-29, average of three separate determinations.

HGFR, sequence (P08581 25-1390): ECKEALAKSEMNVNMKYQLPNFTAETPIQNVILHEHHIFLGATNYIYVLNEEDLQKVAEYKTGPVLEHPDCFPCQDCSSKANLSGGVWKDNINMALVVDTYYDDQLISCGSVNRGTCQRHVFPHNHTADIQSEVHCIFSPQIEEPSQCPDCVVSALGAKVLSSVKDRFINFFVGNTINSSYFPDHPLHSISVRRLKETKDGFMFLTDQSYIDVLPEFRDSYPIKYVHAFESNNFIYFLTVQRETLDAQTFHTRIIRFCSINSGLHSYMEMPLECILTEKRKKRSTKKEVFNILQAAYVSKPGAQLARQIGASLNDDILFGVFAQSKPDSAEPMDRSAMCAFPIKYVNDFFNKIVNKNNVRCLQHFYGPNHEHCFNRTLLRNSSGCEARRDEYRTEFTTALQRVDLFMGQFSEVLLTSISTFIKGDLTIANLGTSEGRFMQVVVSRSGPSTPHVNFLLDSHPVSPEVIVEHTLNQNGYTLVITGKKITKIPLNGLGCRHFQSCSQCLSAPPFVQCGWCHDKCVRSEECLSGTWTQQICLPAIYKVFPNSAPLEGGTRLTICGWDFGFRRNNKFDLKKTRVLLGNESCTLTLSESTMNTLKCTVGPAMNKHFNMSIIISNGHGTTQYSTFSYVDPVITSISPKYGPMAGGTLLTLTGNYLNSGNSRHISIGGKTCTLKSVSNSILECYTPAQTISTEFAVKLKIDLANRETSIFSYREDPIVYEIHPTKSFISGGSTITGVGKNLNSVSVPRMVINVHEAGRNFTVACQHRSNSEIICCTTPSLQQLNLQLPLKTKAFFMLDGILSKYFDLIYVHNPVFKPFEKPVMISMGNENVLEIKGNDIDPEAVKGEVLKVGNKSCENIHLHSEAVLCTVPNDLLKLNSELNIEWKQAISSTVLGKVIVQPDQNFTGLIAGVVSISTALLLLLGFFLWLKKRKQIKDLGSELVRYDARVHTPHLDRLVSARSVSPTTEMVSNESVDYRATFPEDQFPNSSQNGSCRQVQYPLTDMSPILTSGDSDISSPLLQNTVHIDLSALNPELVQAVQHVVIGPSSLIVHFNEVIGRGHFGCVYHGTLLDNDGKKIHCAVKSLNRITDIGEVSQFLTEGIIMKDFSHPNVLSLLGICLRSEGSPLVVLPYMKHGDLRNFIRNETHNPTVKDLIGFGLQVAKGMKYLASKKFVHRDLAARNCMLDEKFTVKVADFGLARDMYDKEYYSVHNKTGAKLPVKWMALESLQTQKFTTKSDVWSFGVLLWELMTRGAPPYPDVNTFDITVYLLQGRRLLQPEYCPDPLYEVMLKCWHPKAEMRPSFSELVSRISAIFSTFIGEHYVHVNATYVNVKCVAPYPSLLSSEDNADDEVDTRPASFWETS
MST1R, sequence (Q04912 25-1400): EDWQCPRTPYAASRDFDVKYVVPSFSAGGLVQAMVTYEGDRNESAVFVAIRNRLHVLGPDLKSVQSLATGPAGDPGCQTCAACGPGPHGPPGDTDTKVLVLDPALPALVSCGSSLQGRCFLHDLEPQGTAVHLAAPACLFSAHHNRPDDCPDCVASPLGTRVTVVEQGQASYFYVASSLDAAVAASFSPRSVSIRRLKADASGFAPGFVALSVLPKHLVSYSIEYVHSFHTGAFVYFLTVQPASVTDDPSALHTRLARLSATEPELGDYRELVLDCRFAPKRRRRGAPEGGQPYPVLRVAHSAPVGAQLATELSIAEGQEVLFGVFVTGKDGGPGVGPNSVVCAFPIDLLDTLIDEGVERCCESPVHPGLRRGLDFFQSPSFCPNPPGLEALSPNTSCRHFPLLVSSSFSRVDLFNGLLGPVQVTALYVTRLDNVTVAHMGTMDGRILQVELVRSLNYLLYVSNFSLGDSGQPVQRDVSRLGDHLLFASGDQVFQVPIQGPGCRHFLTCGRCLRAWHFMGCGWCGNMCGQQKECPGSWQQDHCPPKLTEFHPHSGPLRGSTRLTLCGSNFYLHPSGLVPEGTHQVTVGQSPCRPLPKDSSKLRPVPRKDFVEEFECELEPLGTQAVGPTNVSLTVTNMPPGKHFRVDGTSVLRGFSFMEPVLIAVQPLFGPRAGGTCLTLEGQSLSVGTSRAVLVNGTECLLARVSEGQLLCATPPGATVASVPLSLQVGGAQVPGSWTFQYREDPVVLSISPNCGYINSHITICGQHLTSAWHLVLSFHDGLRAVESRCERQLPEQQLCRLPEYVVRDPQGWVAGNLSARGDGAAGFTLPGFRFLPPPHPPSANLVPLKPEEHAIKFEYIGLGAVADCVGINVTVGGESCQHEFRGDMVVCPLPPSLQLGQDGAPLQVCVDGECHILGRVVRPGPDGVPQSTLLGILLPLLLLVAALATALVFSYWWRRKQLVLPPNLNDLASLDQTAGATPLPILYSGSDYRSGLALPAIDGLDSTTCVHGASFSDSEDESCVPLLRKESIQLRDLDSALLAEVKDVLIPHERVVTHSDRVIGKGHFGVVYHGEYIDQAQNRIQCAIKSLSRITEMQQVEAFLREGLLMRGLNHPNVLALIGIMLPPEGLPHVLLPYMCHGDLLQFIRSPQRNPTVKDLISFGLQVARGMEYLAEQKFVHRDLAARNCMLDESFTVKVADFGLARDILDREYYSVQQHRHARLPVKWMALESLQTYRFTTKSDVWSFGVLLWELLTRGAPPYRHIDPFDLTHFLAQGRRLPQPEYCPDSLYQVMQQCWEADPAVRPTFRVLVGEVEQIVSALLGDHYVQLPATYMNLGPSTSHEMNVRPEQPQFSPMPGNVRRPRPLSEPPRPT

With `CCN(CC)C(=O)N1CCC(Oc2cc3nccc(Oc4ccc(NC(=O)NN5C(=O)CSC5c5c(F)cccc5F)cc4F)c3cc2OC)CC1` (centres unmarked) [BC2021-104511-15i, 4-((4-(4-(3-(2-(2,6-difluorophenyl)-4-oxothiazolidin-3-yl)ureido)-2-fluorophenoxy)-6-methoxyquinolin-7-yl)oxy)-N,N-diethylpiperidine-1-carboxamide, reference compound], the IC50 amounted to 0.11 µM at MST1R; 4.8 ± 0.44 µM with HCT-116 cells; 0.72 ± 0.065 µM in the series with COLO 205 cells (Homo sapiens, COLO 205); 0.79 ± 0.058 µM in the series on HT-29 cells (setting [2]); 0.27 µM at HGFR.

As to `CCOc1ccn(-c2ccc(F)cc2)c(=O)c1C(=O)Nc1ccc(Oc2ccnc(N)c2Cl)c(F)c1` [BMS-777607], the IC50 in the series on Ron (MST1R) is 0.0018 µM.

On to `COc1cc2c(Oc3ccc(NC(=O)NN4C(=O)CSC4c4c(F)cccc4F)cc3F)ccnc2cc1OC1CCN(C(=O)CN(C)C)CC1` (centres unmarked) [Compound 10d, 1–(2-(2,6-Difluorophenyl)-4-oxothiazolidin-3-yl)-3–(4-((7-((1-(dimethylglycyl)piperidin-4-yl)oxy)-6-methoxyquinolin-4-yl)oxy)-3-fluorophenyl)urea], for which the IC50 on MST1R was 0.44 µM; in the series on HCT-116 cells, 2.4 ± 0.26 µM; in the series with COLO 205 cells (Homo sapiens, COLO 205), 4.9 ± 0.38 µM; in the series with HT-29 cells (setting [2]) it was 2.9 ± 0.19 µM; in series [1], over 10 µM; on HGFR, 0.9 µM.

For the compound `COc1cc2c(Oc3ccc(NC(=O)NN4C(=O)CSC4c4c(F)cccc4F)cc3F)ccnc2cc1OC1CCN(C(=O)COC(C)=O)CC1` (centres unmarked) [Compound 10g, 2–(4-((4–(4-(3–(2-(2,6-Difluorophenyl)-4-oxothiazolidin-3-yl)ureido)-2-fluorophenoxy)-6-methoxyquinolin-7-yl)oxy)piperidin-1-yl)-2-oxoethyl acetate], the IC50 at MST1R was 0.11 µM; in the series with HCT-116 cells it was 4.8 ± 0.44 µM; in the series on COLO 205 cells (Homo sapiens, COLO 205) it was 0.59 ± 0.045 µM; in the series with HT-29 cells (setting [2]) it was 6.9 ± 0.47 µM; at HGFR, 0.18 µM.

As to `COc1cc2c(Nc3ccc(NC(=O)NN4C(=O)CSC4c4c(F)cccc4F)cc3F)ccnc2cc1OC1CCN(CC(N)=O)CC1` (centres unmarked) [Compound 10i, 2–(4-((4-((4–(3-(2–(2,6-Difluorophenyl)-4-oxothiazolidin-3-yl)ureido)-2-fluorophenyl)amino)-6-methoxyquinolin-7-yl)oxy)piperidin-1-yl)acetamide], the IC50 with HCT-116 cells and in the series with HT-29 cells (setting [2]) was over 10 µM throughout.

Consider `Cn1cc(-c2cnc3ccc4ccc(CS(=O)(=O)NCc5ccccn5)cc4c(=O)c3c2)cn1` [MK-8033, 1-[3-(1-Methyl-1H-pyrazol-4-yl)-5-oxo-5H-benzo[4,5]cyclohepta[1,2-b]pyridin-7-yl]-N-(pyridin-2-ylmethyl)methanesulfonamide], for which the IC50 with Ron (MST1R) was 0.007 µM.

Consider `COc1cc2c(Oc3ccc(NC(=O)NN4C(=O)CSC4c4c(F)cccc4F)cc3F)ccnc2cc1OC1CCN(C(=O)CO)CC1` (centres unmarked) [Compound 10h, 1–(2-(2,6-Difluorophenyl)-4-oxothiazolidin-3-yl)-3–(3-fluoro-4-((7-((1–(2-hydroxyacetyl)piperidin-4-yl)oxy)-6-methoxyquinolin-4-yl)oxy)phenyl)urea], for which the IC50 at MST1R is 0.16 µM; with COLO 205 cells (Homo sapiens, COLO 205), 0.85 ± 0.073 µM; with HT-29 cells (setting [2]) it was 6.5 ± 0.43 µM; in series [1], over 10 µM; on HGFR, 0.22 µM.

For `CNC(=O)CN1CCC(Oc2cc3nccc(Oc4ccc(NC(=O)NN5C(=O)CSC5c5c(F)cccc5F)cc4F)c3cc2OC)CC1` (centres unmarked) [Compound 10c, 2–(4-((4–(4-(3–(2-(2,6-Difluorophenyl)-4-oxothiazolidin-3-yl)ureido)-2-fluorophenoxy)-6-methoxyquinolin-7-yl)oxy)piperidin-1-yl)-N-methylacetamide], the IC50 came out at 0.072 µM at MST1R; 5.9 ± 0.53 µM in the series with HCT-116 cells; 0.44 ± 0.038 µM in the series with COLO 205 cells (Homo sapiens, COLO 205); 4.1 ± 0.27 µM with HT-29 cells (setting [2]); 0.14 µM on HGFR.

For the compound “2–(4-((4–(4-(3–(2-(2,6-Difluorophenyl)-4-oxotetrahydrothiophen-3-yl)ureido)-2-fluorophenoxy)-6-methoxyquinazolin-7-yl)oxy)piperidin-1-yl)acetamide [Compound 19]”, the IC50 with COLO 205 cells came to 5.3 ± 0.47 µM; in the series on HT-29 cells (average of three separate determinations), 8.6 ± 0.67 µM.

Take `CNC(=O)c1c(C)oc2cc(Oc3ncnc4cc(OC)c(OC)cc34)ccc12` [Fruquintinib, reference compound]: the IC50 in the series on HCT-116 cells was 2.2 ± 0.17 µM; with COLO 205 cells (Homo sapiens, COLO 205), over 10 µM; in the series with HT-29 cells (setting [2]), 1.57 µM.

In the case of `CNC(=O)c1cc(Oc2ccc(NC(=O)Nc3ccc(Cl)c(C(F)(F)F)c3)c(F)c2)ccn1` [Regorafenib, reference compound], the IC50 was 8.2 ± 0.75 µM in the series with HCT-116 cells; over 10 µM in the series with COLO 205 cells (Homo sapiens, COLO 205); 8.49 µM with HT-29 cells (setting [2]).

Take `COc1cc2c(Oc3ccc(NC(=O)NN4C(=O)CSC4c4c(F)cccc4F)cc3F)ccnc2cc1OC1CCN(CC(=O)N2CCOCC2)CC1` (centres unmarked) [Compound 10f, 1–(2-(2,6-Difluorophenyl)-4-oxothiazolidin-3-yl)-3–(3-fluoro-4-((6-methoxy-7-((1–(2-morpholino-2-oxoethyl)piperidin-4-yl)oxy)quinolin-4-yl)oxy)phenyl)urea]: the IC50 on MST1R was 0.078 µM; in the series on HCT-116 cells it was 2.6 ± 0.27 µM; in the series with COLO 205 cells (Homo sapiens, COLO 205), 0.42 ± 0.034 µM; with HT-29 cells (setting [2]), 1.9 ± 0.11 µM; in series [1] it was over 10 µM; at HGFR, 0.14 µM.
